Columns and labels:
Assay in all cases: biochemical
GAK = biological target: T1, GAK (Homo sapiens, UniProt O14976); design: Thermal shift assay (DSF, SYPRO Orange), 2 uM kinase domain, mean delta Tm of triplicates versus DMSO; settings: read-out: GAK
T1 construct: catalytic domain-containing construct
T1 sequence (O14976 1-1311): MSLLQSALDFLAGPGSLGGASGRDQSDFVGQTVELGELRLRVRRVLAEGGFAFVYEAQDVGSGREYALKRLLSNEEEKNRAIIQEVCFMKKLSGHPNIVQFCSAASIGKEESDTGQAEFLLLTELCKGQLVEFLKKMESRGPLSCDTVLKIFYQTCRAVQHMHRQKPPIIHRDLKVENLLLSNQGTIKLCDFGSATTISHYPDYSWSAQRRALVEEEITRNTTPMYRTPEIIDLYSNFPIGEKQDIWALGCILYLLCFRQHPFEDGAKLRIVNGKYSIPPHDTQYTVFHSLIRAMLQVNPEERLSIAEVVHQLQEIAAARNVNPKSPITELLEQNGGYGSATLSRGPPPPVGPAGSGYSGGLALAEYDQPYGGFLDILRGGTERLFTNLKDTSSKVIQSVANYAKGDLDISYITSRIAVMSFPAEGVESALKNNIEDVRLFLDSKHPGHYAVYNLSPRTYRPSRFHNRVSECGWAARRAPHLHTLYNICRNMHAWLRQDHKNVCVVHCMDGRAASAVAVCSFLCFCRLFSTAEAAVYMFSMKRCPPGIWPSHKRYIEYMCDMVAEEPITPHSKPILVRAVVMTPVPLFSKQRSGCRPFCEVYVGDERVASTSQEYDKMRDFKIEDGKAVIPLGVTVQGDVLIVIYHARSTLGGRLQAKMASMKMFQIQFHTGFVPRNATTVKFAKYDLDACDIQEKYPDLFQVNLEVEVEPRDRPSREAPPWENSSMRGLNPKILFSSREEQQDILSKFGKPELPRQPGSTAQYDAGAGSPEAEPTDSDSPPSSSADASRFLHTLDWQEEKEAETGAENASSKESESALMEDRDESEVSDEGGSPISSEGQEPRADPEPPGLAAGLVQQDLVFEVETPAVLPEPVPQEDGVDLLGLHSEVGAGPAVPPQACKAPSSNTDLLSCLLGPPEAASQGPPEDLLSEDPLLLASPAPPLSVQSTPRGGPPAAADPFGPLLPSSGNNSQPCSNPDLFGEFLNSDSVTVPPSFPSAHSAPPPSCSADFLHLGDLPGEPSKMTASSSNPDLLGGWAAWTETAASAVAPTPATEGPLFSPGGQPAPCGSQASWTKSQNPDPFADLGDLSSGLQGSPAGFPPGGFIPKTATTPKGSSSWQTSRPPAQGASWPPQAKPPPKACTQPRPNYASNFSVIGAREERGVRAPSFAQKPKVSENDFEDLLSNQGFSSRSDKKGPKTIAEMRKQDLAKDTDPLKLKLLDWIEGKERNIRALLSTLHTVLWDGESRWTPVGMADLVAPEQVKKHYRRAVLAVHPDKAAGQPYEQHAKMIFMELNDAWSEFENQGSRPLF
Protocol: (§1) All measurements were performed in triplicate and mean values were reported for all compounds (Table S1). […] However, NAKs are often omitted from selectivity panels, including commercial screens.

BIKE = biological target: T2, BIKE (Homo sapiens, UniProt Q9NSY1); design: Thermal shift assay (DSF, SYPRO Orange), 2 uM kinase domain, mean delta Tm of triplicates versus DMSO; settings: read-out: BIKE
T2 construct: gene BMP2K; catalytic domain-containing construct
Protocol: as §1

MPSK1 = biological target: T3, MPSK1 (Homo sapiens, UniProt O75716); design: Thermal shift assay (DSF, SYPRO Orange), 2 uM kinase domain, mean delta Tm of triplicates versus DMSO; settings: for ΔTm at 12.5 µM: read-out: MPSK1
T3 construct: gene STK16; catalytic domain-containing construct
Protocol: as §1

AAK1 = AAK1 (Homo sapiens, UniProt Q2M2I8); design: kinase domain; Thermal shift assay (DSF, SYPRO Orange), 2 uM kinase domain, mean delta Tm of triplicates versus DMSO; settings: for ΔTm at 12.5 µM: read-out: AAK1
Protocol: as §1

T2 sequence (Q9NSY1 whole entry, the tested form may be a part): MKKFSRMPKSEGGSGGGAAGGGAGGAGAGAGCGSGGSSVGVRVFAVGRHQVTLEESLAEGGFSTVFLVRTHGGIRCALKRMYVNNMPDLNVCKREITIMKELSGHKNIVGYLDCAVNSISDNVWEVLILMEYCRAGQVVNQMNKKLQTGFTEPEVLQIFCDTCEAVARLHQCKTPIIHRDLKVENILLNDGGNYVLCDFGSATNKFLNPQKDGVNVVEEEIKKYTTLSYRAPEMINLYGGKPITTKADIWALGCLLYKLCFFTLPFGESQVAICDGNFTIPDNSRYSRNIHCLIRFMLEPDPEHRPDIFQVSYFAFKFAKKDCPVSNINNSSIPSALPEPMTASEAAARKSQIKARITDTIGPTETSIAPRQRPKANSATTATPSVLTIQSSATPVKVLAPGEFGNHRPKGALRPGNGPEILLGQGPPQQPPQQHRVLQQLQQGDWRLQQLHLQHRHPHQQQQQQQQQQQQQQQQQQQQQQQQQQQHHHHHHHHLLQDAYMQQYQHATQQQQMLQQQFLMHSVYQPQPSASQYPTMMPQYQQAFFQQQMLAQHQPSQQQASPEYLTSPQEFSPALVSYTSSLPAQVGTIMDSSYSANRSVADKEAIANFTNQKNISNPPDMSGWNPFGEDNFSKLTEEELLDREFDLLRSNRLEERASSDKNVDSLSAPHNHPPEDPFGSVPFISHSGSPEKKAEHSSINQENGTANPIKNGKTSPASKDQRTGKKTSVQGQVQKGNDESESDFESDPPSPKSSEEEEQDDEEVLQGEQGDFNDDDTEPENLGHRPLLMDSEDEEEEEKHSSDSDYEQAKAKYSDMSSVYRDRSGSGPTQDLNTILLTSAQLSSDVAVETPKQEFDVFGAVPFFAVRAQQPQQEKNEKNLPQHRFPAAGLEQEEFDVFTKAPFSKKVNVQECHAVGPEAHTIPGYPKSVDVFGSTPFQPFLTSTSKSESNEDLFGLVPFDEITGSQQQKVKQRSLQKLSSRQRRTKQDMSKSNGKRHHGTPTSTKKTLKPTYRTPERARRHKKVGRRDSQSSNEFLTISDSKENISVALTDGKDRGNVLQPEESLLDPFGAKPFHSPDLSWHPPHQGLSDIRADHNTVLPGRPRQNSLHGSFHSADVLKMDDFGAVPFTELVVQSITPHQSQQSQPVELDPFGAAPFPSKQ
Sequence of AAK1 (Q2M2I8 27-365 limits assumed): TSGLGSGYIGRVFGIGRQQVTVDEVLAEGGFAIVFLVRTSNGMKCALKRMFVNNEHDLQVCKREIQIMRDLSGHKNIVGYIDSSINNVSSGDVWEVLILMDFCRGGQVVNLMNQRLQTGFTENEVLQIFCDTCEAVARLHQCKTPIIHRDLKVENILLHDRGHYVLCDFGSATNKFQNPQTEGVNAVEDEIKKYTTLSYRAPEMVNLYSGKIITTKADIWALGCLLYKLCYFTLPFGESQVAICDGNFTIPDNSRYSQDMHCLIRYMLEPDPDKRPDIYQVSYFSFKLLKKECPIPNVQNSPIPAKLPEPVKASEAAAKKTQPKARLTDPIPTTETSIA
T3 sequence (O75716 whole entry, the tested form may be a part): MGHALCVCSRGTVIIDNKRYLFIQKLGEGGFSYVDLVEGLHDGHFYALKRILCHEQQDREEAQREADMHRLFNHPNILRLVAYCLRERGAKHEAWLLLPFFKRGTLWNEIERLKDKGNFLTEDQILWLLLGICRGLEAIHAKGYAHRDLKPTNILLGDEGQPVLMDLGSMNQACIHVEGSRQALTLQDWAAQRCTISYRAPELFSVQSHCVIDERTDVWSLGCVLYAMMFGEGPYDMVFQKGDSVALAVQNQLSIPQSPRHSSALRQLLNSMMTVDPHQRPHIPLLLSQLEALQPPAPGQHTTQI

Row | SMILES | ΔTm at 12.5 µM (GAK) [°C] | ΔTm at 12.5 µM (BIKE) [°C] | ΔTm at 12.5 µM (MPSK1) [°C] | ΔTm at 12.5 µM (AAK1) [°C] | MPSK1 (MPSK1; 12.5 µM) [°C] | AAK1 (AAK1; 12.5 µM) [°C]
1 | COc1cc(OC)c(/C=C/S(=O)(=O)Cc2ccc(OC)c(NCC(=O)O)c2)c(OC)c1 [Rigosertib] | -0.48 | 0.203 | 0.583 | 0.19 |  | 
2 | CC(C)(C)c1nc(-c2cccc(NS(=O)(=O)c3c(F)cccc3F)c2F)c(-c2ccnc(N)n2)s1 [Dabrafenib] | 9.06 | 2.95 | 4.06 | 2.23 |  | 
3 | CN1CCN(CCOc2cc(OC3CCOCC3)c3c(Nc4c(Cl)ccc5c4OCO5)ncnc3c2)CC1 [Saracatinib] | 7.95 | 4.59 | 0.66 | 0.31 |  | 
4 | O=C(Cc1ccc(-c2ccc(OCCN3CCOCC3)cc2)cn1)NCc1ccccc1 [KX2-391] | 0.46 | 1.76 | 0.373 | 0.0867 |  | 
5 | Cn1cnc2c(F)c(Nc3ccc(Br)cc3Cl)c(C(=O)NOCCO)cc21 [Selumetinib] | -0.847 | 0.227 | 0.797 | 0.343 |  | 
6 | Cn1cc(C2=C(c3cn(C4CCN(Cc5ccccn5)CC4)c4ccccc34)C(=O)NC2=O)c2ccccc21 [Enzastaurin] | -0.347 | 1.79 | 1.94 | 0.7 |  | 
7 | C[C@]1(O)C[C@@H](c2nc(-c3ccc4ccc(-c5ccccc5)nc4c3)c3c(N)nccn32)C1 [Linsitinib] | -0.6 | 0.903 | 0.73 | 0.277 |  | 
8 | CCN1CCN(c2ccc(Nc3cc(N(C)C(=O)Nc4c(Cl)c(OC)cc(OC)c4Cl)ncn3)cc2)CC1 [NVP-BGJ398] | -0.197 | 0.763 | 0.66 | 0.41 |  | 
9 | C[C@]12O[C@H](C[C@]1(O)CO)n1c3ccccc3c3c4c(c5c6ccccc6n2c5c31)CNC4=O [Lestaurtinib] | 10.8 | 16.5 | 11.1 | 13.6 |  | 
10 | Cc1cn(-c2cc(NC(=O)c3ccc(C)c(Nc4nccc(-c5cccnc5)n4)c3)cc(C(F)(F)F)c2)cn1 [Nilotinib] | 5.36 | 1.06 | 2.48 | 1.13 |  | 
11 | Nc1cc(C(F)(F)F)c(-c2cc(N3CCOCC3)nc(N3CCOCC3)n2)cn1 [Buparlisib] | -0.927 | 0.573 | 1.75 | 0.317 |  | 
12 | CNC(=O)c1c(F)cccc1Nc1nc(Nc2cc3c(ccn3C(=O)CN(C)C)cc2OC)nc2[nH]ccc12 [GSK1838705A] | 0.74 | 0.543 | 1.27 | 0.143 |  | 
13 | CC(C)(C)Cn1c(N)nc2ccc(-c3[nH]c(C(C)(C)C)nc3-c3ccc(F)cc3)nc21 [Ralimetinib] | 9.03 | 1.12 | 1.32 | 0.397 |  | 
14 | CN1CCN(c2ccc3nc(-c4c(N)c5c(F)cccc5[nH]c4=O)[nH]c3c2)CC1 [Dovitinib] | -0.0367 | 0.12 | 0.593 | 0.263 |  | 
15 | CCS(=O)(=O)N1CC(CC#N)(n2cc(-c3ncnc4[nH]ccc34)cn2)C1 [baricitinib] | 2.06 | 10.2 |  |  | 4.053 | 8.293
16 | COc1cc(Nc2ncc(F)c(Nc3ccc4c(n3)NC(=O)C(C)(C)O4)n2)cc(OC)c1OC [Tamatinib] | 3.48 | 6.55 | 14.1 | 7 |  | 
17 | COc1cc(Nc2ncc3c(n2)-c2ccc(Cl)cc2C(c2c(F)cccc2OC)=NC3)ccc1C(=O)O [Alisertib] | -0.237 | 0.78 | 2.32 | 0.29 |  | 
18 | COc1cc2nccc(Oc3ccc(NC(=O)Nc4cc(C)on4)c(Cl)c3)c2cc1OC [Tivozanib] | 6.98 | 3.87 | 1.4 | 3.15 |  | 
19 | O=C(NC[C@H](O)CO)c1ccncc1Nc1ccc(I)cc1F [Pimasertib] | -0.59 | 0.36 | 0.313 | 0.0267 |  | 
20 | Cc1[nH]c(/C=C2\C(=O)Nc3ccccc32)c(C)c1CCC(=O)O [Orantinib] | 3.99 | 12 | 5.87 | 6.55 |  | 
21 | Cc1c(CN2CCN(C(=O)[C@H](C)O)CC2)sc2c(N3CCOCC3)nc(-c3cnc(N)nc3)nc12 [Apitolisib] | 0.847 | 1.55 | 3.51 | 1.4 |  | 
22 | C=CC(=O)N1CCC[C@@H](n2nc(-c3ccc(Oc4ccccc4)cc3)c3c(N)ncnc32)C1 [Ibrutinib] | -0.293 | 0.397 | 1.76 | 0.0167 |  | 
23 | COc1cc2nccc(Oc3ccc(NC(=O)C4(C(=O)Nc5ccc(F)cc5)CC4)cc3)c2cc1OC [Cabozantinib] | 2.46 | 0.743 | 0.713 | 0.82 |  | 
24 | COc1cc(Nc2c(C#N)cnc3cc(OCCCN4CCN(C)CC4)c(OC)cc23)c(Cl)cc1Cl [Bosutinib] | 9.42 | 5.88 | 1.25 | 3.03 |  | 

Next, values leading:

Row | ΔTm at 12.5 µM (GAK) [°C] | ΔTm at 12.5 µM (BIKE) [°C] | ΔTm at 12.5 µM (MPSK1) [°C] | ΔTm at 12.5 µM (AAK1) [°C] | MPSK1 (MPSK1; 12.5 µM) [°C] | AAK1 (AAK1; 12.5 µM) [°C] | SMILES
25 | -0.483 | 0.39 | 0.763 | 0.317 |  |  | Cc1c(Cn2c(C)nc3c(C(=O)O)cc(N4CCOCC4)cc32)cccc1C(F)(F)F [GSK2636771]
26 | 0.157 | 6.73 | 2.88 | 7.43 |  |  | CCn1c(-c2nonc2N)nc2cnc(Oc3cccc(NC(=O)c4ccc(OCCN5CCOCC5)cc4)c3)cc21 [GSK269962]
27 | 9.03 | 8.42 | 2.75 | 7.77 |  |  | COc1cc(N2CCC(N3CCN(C)CC3)CC2)ccc1Nc1ncc(Cl)c(Nc2ccccc2P(C)(C)=O)n1 [AP26113]
28 | -0.243 | 0.45 | 1.04 | 0.437 |  |  | CCc1cncnc1N1CCN(Cc2nc3ccc(C(F)(F)F)cc3[nH]2)CC1 [PF-04708671]
29 | -0.347 | 0.227 | 0.463 | 0.187 |  |  | Cc1cc(C(=O)NOCCO)c(Nc2ccc(I)cc2F)n(C)c1=O [AZD8330]
30 | 1.69 | 5.35 | 0.883 | 4.98 |  |  | CNc1nc(-c2ccc3c(N)n[nH]c3c2)cc(N2C[C@@H](C(=O)NC3CCCCC3)CC[C@H]2C)n1 [GSK2334470]
31 | -0.497 | 0.24 | 0.847 | 0.21 |  |  | C[C@H](Nc1ncnc2nc[nH]c12)c1cc2cccc(Cl)c2c(=O)n1-c1ccccc1 [IPI-145]
32 | 0.02 | 0.633 | 1.24 | 0.383 |  |  | FC(F)c1nc2ccccc2n1-c1nc(N2CCOCC2)nc(N2CCOCC2)n1 [ZSTK474]
33 | 3.09 | 3.37 | 3.4 | 1.65 |  |  | CC(C)Oc1cc(Nc2nc(N[C@@H](C)c3ccc(F)cn3)ncc2Cl)n[nH]1 [AZ23]
34 | 4.05 | 15.9 | 8.25 | 9.95 |  |  | O=C(Nc1cccc(Nc2ncc(Br)c(NCCc3cnc[nH]3)n2)c1)N1CCCC1 [BX-912]

From article PMC4780864, “Family-wide Structural Analysis of Human Numb-Associated Protein Kinases” (Structure(London, England:1993), 2016)
